In patent US8314082B2, “Stilbene derivatives for ADP-ribosyl cyclase inhibitors” (Industrial Cooperation Foundation Chonbuk National …, priority 2006, dated 2012):
Like-named read-outs stand apart in the source and are kept apart here.

Tests used:
[1] = tested on: Ang II induced [Ca^2+]i increase in murine mesangial cells (MMCs); assay: Ang II-mediated [Ca2+]i increase in MMCs; type: cell-based; settings: Mus musculus, Mesangial cell, later sustained Ca2+ signal induced by 150 nM Ang II, 300 s, read-out: IC50([Ca^2+]i, uM) (means ± SEM)
Description: Changes in [Ca^2+]i in MMCs were determined as described previously [Kim et al., Exp. Mol. Med. (2006)38:535-45]. Briefly, MMCs cultured on confocal dishes for 48 h at a concentration of 10^4 cells/dish were washed with Hank's balanced salt solution (HBSS) (2 mM CaCl2, 145 mM NaCl, 5 mM KCl, 1 mM MgCl2, 5 mM D-glucose, and 20 mM HEPES, pH 7.3) and then loaded with […] Fluo 3-AM (Molecular Probe, Eugene, Oreg.). Changes in Ca^2+ fluorescence were determined at 488 nm/530 nm (excitation/emission) by air-cooled argon laser system. [Ca^2+]i was calculated using a Kd of 325 nM for Fluo 3-AM by the method of Tsien et al. (1982).

[2] = tested on: Ang II induced cADPR production in murine mesangial cells (MMCs); assay: Ang II-induced intracellular cADPR concentration in MMCs; type: cell-based; settings: Mus musculus, Mesangial cell, read-out: IC50([CADPR]i, uM) (means ± SEM)
Description: [cADPR]i was measured using a cyclic enzymatic assay as described previously [Graeff et al., Biochem. J. (2002)361:379-84]. Aplysia californica ADPR-cyclase was purified from […] according to the method described [Lee et al., Cell Regul. (1991)2:203-9]. Briefly, MMCs were treated with 0.3 ml of 0.6 M perchloric acid under sonication after Ang II treatment. Precipitates were removed by centrifugation at 20,000×g for 10 min. Perchloric acid was removed by mixing the aqueous sample with a solution containing 3 volumes of 1,1,2-trichlorotrifluoroethane to 1 volume of tri-n-octlyamine. After centrifugation for 10 min at 1500×g, the aqueous layer was collected and neutralized with 20 mM sodium phosphate (pH 8). To remove all contaminating nucleotides, the samples were incubated with the following hydrolytic enzymes overnight at 37° C.: 0.44 unit/ml nucleotide pyrophosphatase, 12.5 units/ml alkaline phosphatase, 0.0625 unit/ml NADase, and 2.5 mM MgCl2 in 20 mM sodium phosphate buffer (pH 8.0). Enzymes were removed by filtration using Centricon-3 filters. To convert cADPR to NAD^+, the samples (0.1 ml/tube) were incubated with […] of a cycling reagent containing 0.3 mg/ml Aplysia ADPR-cyclase, 30 mM nicotinamide, and 100 mM sodium phosphate (pH 8) at room temperature for 30 min. The samples were further incubated with the cycling reagent (0.1 ml) containing 2% ethanol, […] alcohol dehydrogenase, 20 mM resazurin, 10 mg/ml diaphorase, 10 mM riboflavin 5′-phosphate, 10 mM nicotinamide, 0.1 mg/ml BSA, and 100 mM sodium phosphate (pH 8.0) for 2 h at room temperature. An increase in the resorufin fluorescence was measured at 544 nm excitation and 590 nm emission using a fluorescence plate reader (Molecular Devices Corp., Spectra-Max GEMINI). Various known concentrations of cADPR were also included in the cycling reaction to generate a standard curve. […] Production of cADPR as well as later sustained Ca^2+ signal in response to Ang II was inhibited with different efficacy by these small molecules (Table 1). […] The order of IC50 was 4,4′-DAHB>resveratrol>azobenzene=piceatannol>2,2′-DAHB.

STZ diabetic mice = assay: Diabetic nephropathy in STZ diabetes mouse model; type: in vivo; settings: 45 μg/kg i.p. once a day for 6 weeks, mean SE, n = 6
Description: Male mice, weighing 20 25 g, were made diabetic by a single intravenous injection of STZ (65 mg/kg body weight) in 0.05 M citrate buffer (pH 4.8). At the same day, the control mice were injected with the citrate buffer. After 2 days, induction of diabetes was confirmed by tail blood glucose level measurement by using the LifeScan One Touch glucometer (Johnson & Johnson). The diabetic mice (>16 mM blood glucose) were randomly divided into two groups; 6 mice per group treated with vehicle (0.1% DMSO in saline, 100 μl) or DHAB (45 μg/kg body weight in 0.1% DMSO in saline, 100 μl) and resveratrol (45 μg/kg body weight in 0.1% DMSO in saline, 100 μl) administered by intraperitoneal injection once a day for 6 weeks. The control mice were 6 mice per group treated with the vehicle. On day 39, the mice were detained in individual metabolic cages for 24 h for urine collection. On day 42, the mice were anesthetized with diethyl ether, and blood samples were taken from the abdominal aorta. Bilateral kidneys were rapidly removed and weighed. Urine was gravimetrically collected, and urinary albumin concentrations were determined with an enzyme-linked immunosorbent assay using a murine microalbuminuria kit (Albuwell; Exocell, Philadelphia, Pa.). Urine and serum creatinine levels were measured using the QuantiChrom Creatinine Assay Kit (BioAssay Systems, Hayward, Calif.), following the manufacturer's protocol.

[3] = cADPR production induced by 150 nM Ang II, 90 s, MMCs

With `c1ccc(N=Nc2ccccc2)cc1` [Azobenzene] the IC50 [1] was 10 ± 1.1 µM and the IC50 [2] was 13 ± 2.1 µM.
`Oc1cc(O)cc(/C=C/c2ccc(O)c(O)c2)c1` [Piceatannol, 3,5,3′,4′-tetrahydroxy-trans-stilbene] gave an IC50 [1] of 10 ± 1.7 µM and an IC50 [2, 3] of 8.9 ± 1.5 µM.
`Oc1ccc(/C=C/c2cc(O)cc(O)c2)cc1` [Resveratrol, 3,5,4′-trihydroxy-trans-stilbene] gave an IC50 [1] of 5 ± 0.8 µM, an IC50 [2, 3] of 5.5 ± 0.5 µM and a Urine output (STZ diabetic mice; 24 h metabolic cage) of 2.55 ± 2.09 mL/day. For the same molecule, the “Body Weight” value (STZ diabetic mice) was 22.6 ± 0.70 g, the Food intake (STZ diabetic mice) was 3.12 ± 0.79 g and the Plasma glucose (STZ diabetic mice) was 441 ± 48.7 mg/dL. For the same molecule, the “Urinary Albumin” value (STZ diabetic mice) was 2.97 ± 2.11 µg/day and the Water intake (STZ diabetic mice) was 5.67 ± 3.21 mL.
